Experimental data taken from patent US12569464B2, “Protein-protein interaction inducing technology” (Arvinas Operations, Inc., priority 2016, dated 2026).

Key:
Androgen Receptor = molecular target: T1, Androgen Receptor (Homo sapiens, UniProt P10275); test: Cell-based ligand (R1881) displacement assay, binary binding to AR; settings: read-out: binary binding potency IC50^AR in cells
T1 construct: expressed in transfected cells; host or cells: HEK293
T1 sequence (P10275 1-920): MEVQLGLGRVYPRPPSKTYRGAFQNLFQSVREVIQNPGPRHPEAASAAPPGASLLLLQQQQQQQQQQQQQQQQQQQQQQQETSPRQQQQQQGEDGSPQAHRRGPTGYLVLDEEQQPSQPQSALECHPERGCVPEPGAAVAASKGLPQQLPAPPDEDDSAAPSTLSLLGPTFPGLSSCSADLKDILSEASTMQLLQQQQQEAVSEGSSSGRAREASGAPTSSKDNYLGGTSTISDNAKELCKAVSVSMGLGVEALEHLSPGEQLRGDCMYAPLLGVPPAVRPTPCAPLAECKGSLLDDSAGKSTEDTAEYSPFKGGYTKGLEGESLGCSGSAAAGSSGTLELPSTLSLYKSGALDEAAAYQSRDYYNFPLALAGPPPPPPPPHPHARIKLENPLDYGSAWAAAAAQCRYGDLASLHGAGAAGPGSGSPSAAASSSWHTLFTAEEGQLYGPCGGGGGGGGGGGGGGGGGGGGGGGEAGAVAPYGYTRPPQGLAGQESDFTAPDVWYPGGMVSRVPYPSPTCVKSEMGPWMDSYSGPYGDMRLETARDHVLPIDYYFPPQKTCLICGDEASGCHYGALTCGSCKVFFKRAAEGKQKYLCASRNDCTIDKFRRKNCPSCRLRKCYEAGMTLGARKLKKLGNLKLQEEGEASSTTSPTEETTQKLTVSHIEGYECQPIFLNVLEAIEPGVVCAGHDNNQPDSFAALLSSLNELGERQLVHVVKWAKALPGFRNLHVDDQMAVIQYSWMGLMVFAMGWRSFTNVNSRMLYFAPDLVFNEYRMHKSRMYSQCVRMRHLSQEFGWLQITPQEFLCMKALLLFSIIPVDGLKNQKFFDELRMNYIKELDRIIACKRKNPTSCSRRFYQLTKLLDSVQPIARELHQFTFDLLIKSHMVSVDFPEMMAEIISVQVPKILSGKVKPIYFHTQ
Protocol: It is composed of an AR-binding warhead which is connected to a VHL-binding warhead by a linear connector. […] MD simulation of a ternary system composed of AR ligand-binding domain, a ligand and the complex of VHL with elongin B (EB) and elongin C (EC) in the presence of explicit water was performed. The ligand in the simulation is a close analog of the ligand L above and only differs from the ligand L above by having a methyl substitution at the 4-position of the thiazole group.
(§1) The connector linking the AR-binding warhead and the VHL-binding warhead was systematically probed from 4 to 23 atoms. The AR degradation potency DC50 and the maximum percentage of degradation Dmax of AR in LNCaP cells were measured for each of these compounds. […] The binary binding potency with respect to AR was also measured for some of the compounds by the cell-based ligand (R1881) displacement assay. The ratio α between the AR-binding potency and the degradation potency are calculated when it is possible.
The experimental protocol is based on reference Gustafson et al. (Angew. Chem. Int. Ed., 54: 9659-9662). HEK293 cells were transiently transfected using Fugene 6 to overexpress wildtype Androgen Receptor. During binding assay, transfected cells were grown in DMEM supplemented with 10% charcoal-stripped FBS. Cells were treated for two hours with the indicated competitor compound in the presence of 0.1 nM ^3H-R1881. Cells were washed in PBS, lysed in 200 ul lysis buffer (2% SDS, 10% Glycerol, 10 mM Tris-HCl [pH 6.8]), and cleared with the addition of 300 ul of 10 mM Tris-HCl (pH 8.0). 300 ul of these lysates were added to 3 mL of Cytoscint (MP Biomedicals), and scintillation counting was performed on a Beckman LS 6000SC instrument. Counts (cpm) were normalized to total protein amount in each sample, as determined via the Pierce BCA Protein Assay Kit (Thermo Scientific) per the manufacturer's instructions.

AR = molecular target: T2, AR (Homo sapiens, UniProt P10275+P40337, T878A); test: AR degradation in LNCaP cells (androgen receptor ELISA); assay type: cell-based; settings: for DC50 / Dmax / maximum AR degradation Dmax: LNCaP cells; for DC50: read-out: AR degradation potency DC50; for Dmax: read-out: maximum AR degradation Dmax
T2 construct: degradation Dmax of AR in LNCaP cells; endogenous in cells; host or cells: LNCaP
Protocol: as §1
Androgen Receptor ELISA Assay
The protocols used with VCaP cells are described below. The androgen receptor ELISA assay was performed using PathScan AR ELISA (Cell Signaling Catalog #12850) according to the following assay steps: […]

T2 sequence (Q15370 whole entry): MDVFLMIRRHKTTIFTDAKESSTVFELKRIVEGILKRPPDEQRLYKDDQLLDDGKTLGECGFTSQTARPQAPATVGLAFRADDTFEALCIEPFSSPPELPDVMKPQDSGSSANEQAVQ
T2 sequence (P40337 whole entry): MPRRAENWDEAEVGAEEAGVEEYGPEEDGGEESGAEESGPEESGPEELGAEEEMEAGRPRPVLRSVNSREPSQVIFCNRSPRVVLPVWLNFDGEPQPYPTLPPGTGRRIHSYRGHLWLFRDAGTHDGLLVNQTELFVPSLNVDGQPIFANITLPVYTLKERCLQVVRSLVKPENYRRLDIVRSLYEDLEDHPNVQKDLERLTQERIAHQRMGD
T2 sequence (P10275 whole entry T878A): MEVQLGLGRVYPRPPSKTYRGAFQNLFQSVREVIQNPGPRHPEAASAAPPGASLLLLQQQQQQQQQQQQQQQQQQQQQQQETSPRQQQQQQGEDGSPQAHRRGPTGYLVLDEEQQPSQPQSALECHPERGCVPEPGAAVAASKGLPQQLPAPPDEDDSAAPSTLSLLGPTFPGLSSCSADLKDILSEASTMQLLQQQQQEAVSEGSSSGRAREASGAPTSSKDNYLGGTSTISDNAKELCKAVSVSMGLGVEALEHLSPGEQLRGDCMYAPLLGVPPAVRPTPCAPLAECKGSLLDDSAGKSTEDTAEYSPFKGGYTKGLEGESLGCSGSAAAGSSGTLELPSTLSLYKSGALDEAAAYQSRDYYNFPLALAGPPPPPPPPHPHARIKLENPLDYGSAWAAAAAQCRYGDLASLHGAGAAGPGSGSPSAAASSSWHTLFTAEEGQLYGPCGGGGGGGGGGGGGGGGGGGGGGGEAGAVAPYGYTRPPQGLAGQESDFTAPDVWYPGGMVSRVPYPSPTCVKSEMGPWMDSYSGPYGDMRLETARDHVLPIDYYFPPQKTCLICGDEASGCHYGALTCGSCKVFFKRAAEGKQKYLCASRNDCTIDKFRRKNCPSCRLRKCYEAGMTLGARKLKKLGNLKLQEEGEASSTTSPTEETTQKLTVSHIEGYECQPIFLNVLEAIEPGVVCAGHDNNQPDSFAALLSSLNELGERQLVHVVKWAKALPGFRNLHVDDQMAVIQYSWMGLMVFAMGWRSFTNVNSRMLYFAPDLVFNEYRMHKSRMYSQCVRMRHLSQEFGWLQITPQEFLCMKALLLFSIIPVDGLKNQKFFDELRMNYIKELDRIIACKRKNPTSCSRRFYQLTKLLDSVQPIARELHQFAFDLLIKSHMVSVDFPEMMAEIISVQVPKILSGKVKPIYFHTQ
T2 sequence (Q15369 whole entry, further chain): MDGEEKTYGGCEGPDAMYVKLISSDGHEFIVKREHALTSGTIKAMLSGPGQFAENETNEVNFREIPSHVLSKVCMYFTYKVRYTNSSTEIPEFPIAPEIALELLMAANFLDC

Row | SMILES | IC50 (Androgen Receptor) | DC50 (AR) | Dmax (AR) | ratio α between AR-binding potency IC50 and degradation potency DC50 (AR) | maximum AR degradation Dmax (AR)
1 | Cc1ncsc1-c1ccc(CNC(=O)[C@@H]2C[C@@H](O)CN2C(=O)[C@@H](NC(=O)CCCOc2ccc(N3C(=S)N(c4ccc(C#N)c(C(F)(F)F)c4)C(=O)C3(C)C)cc2)C(C)(C)C)cc1 [Compound 1] | 970 nM | > 3000 nM | 35% | – | –
2 | Cc1ncsc1-c1ccc(CNC(=O)[C@@H]2C[C@@H](O)CN2C(=O)[C@@H](NC(=O)COCCOc2ccc(N3C(=S)N(c4ccc(C#N)c(C(F)(F)F)c4)C(=O)C3(C)C)cc2)C(C)(C)C)cc1 [Compound 2] | 2140 nM | 1700 nM | – | <1 | 51%
3 | Cc1ncsc1-c1ccc(CNC(=O)[C@@H]2C[C@@H](O)CN2C(=O)[C@@H](NC(=O)COCCCOCCCCCOc2ccc(N3C(=S)N(c4ccc(C#N)c(C(F)(F)F)c4)C(=O)C3(C)C)cc2)C(C)(C)C)cc1 [Compound 9] | 810 nM | 34.4 nM | – | 23.5 | 83%
4 | Cc1ncsc1-c1ccc(CNC(=O)[C@@H]2C[C@@H](O)CN2C(=O)[C@@H](NC(=O)COCCCCOCCCCCOc2ccc(N3C(=S)N(c4ccc(C#N)c(C(F)(F)F)c4)C(=O)C3(C)C)cc2)C(C)(C)C)cc1 [Compound 10] | – | 60 nM | – | – | 77%
5 | Cc1ncsc1-c1ccc(CNC(=O)[C@@H]2C[C@@H](O)CN2C(=O)[C@@H](NC(=O)COCCOCCOCCCCCOc2ccc(N3C(=S)N(c4ccc(C#N)c(C(F)(F)F)c4)C(=O)C3(C)C)cc2)C(C)(C)C)cc1 [Compound 11] | 1150 nM | 11 nM | – | 105 | 60%
6 | Cc1ncsc1-c1ccc(CNC(=O)[C@@H]2C[C@@H](O)CN2C(=O)[C@@H](NC(=O)COCCOCCOCCCOCCOCCOc2ccc(N3C(=S)N(c4ccc(C#N)c(C(F)(F)F)c4)C(=O)C3(C)C)cc2)C(C)(C)C)cc1 [Compound 14] | 4950 nM | 220 nM | 52% | – | –
7 | Cc1ncsc1-c1ccc(CNC(=O)[C@@H]2C[C@@H](O)CN2C(=O)[C@@H](NC(=O)COCCOCCOCCCCOCCOCCOc2ccc(N3C(=S)N(c4ccc(C#N)c(C(F)(F)F)c4)C(=O)C3(C)C)cc2)C(C)(C)C)cc1 [Compound 15] | 3480 nM | 29 nM | 58% | – | –
8 | Cc1ncsc1-c1ccc(CNC(=O)[C@@H]2C[C@@H](O)CN2C(=O)[C@@H](NC(=O)COCCOCCOCCOCCOCCOCCOc2ccc(N3C(=S)N(c4ccc(C#N)c(C(F)(F)F)c4)C(=O)C3(C)C)cc2)C(C)(C)C)cc1 [Compound 16] | 1750 nM | 3000 nM | 90% | – | –
9 | Cc1ncsc1-c1ccc(CNC(=O)[C@@H]2C[C@@H](O)CN2C(=O)[C@@H](NC(=O)COCCOCCCCOCCCCOCCOCCOc2ccc(N3C(=S)N(c4ccc(C#N)c(C(F)(F)F)c4)C(=O)C3(C)C)cc2)C(C)(C)C)cc1 [Compound 17] | 1420 nM | > 3000 nM | 43% | – | –
10 | Cc1ncsc1-c1ccc(CNC(=O)[C@@H]2C[C@@H](O)CN2C(=O)[C@@H](NC(=O)COCCOCCCCCOCCCCCOCCOCCOc2ccc(N3C(=S)N(c4ccc(C#N)c(C(F)(F)F)c4)C(=O)C3(C)C)cc2)C(C)(C)C)cc1 [Compound 18] | 960 nM | > 3000 nM | – | <1 | 47%
